Here are results for one compound from patent US9051351B2, “Hepatocyte growth factor mimics as therapeutic agents” (Washington State University, priority 2011, dated 2015).

Each structure is given as a SMILES string. “Also recorded” adds a separate entry of the source. Like-named read-outs stand apart in the source and are kept apart here. Where a SMILES comes first, the peptide text is derived from it. [ ]: non-standard residue; d: D form. The star is where a group is joined. Hexanoyl = CCCCCC(=O)*; Ahx = NCCCCCC(=O)O

Series [1] concerns c-Met. Briefly: Augmentation of HGF-dependent c-Met phosphorylation in HEK293 cells. The series is classed as cell-based, human. To be noted: HEK 293 cells, HGF+/−Dihexa, 30 minutes. The procedure: HGF mimetic activity was typically assessed by one or both of two methods: augmentation of HGF-dependent c-Met phosphorylation in HEK293 cells, or 2) augmentation of HGF-dependent cell scattering in MDCK cells. All the compounds in Family one were tested using the c-Met phosphorylation assay. […]
Human embryonic kidney cells 293 (HEK293), Madin Darby canine kidney cells (MDCK), and B16F10 murine melanoma cells were grown in DMEM, 10% fetal bovine serum (FBS). Cells were grown to 90-100% confluency before use. For most but not all studies HEK and MDCK cells were serum starved for 24 hours prior to the initiation of drug treatment.
HEK293 cells were seeded in 6 well tissue culture plates and grown to 95% confluency in DMEM containing 10% FBS. […] The lysate was clarified by centrifugation at 15,000 g for 15 minutes, protein concentrations were determined using the BCA total protein assay, and then appropriate volumes of the lysates were diluted with 2× reducing Laemmli buffer and heated for ten minutes at 95° C. […] Proteins were visualized using the Supersignal West Pico Chemiluminescent Substrate system (Pierce, Fenton, Mo.) and molecular weights determined by comparison to protein ladders (BenchMark, Invitrogen; and Kaleidoscope, BioRad). Images were digitized and analyzed using a UVP phosphoimager.

A short description of series [2]: Serum metabolism of peptides in rat serum. It is filed as in vitro ADME. As to conditions: male, Sprague Dawley, rat, rat serum. As for the experimental part: Four month old male Sprague Dawley rats were used as the blood source for the metabolism studies. Blood was collected from left/right jugular veins of the rats using sterile catheters. After a 30 minute incubation on ice, the blood was centrifuged at 1000 rpm for 15 min to separate the serum. Serum was then transferred to clean tubes and stored at −20° C. until use.
Except for dihexa all drug solutions were prepared in HPLC grade water at 5 mg/ml. Stock drugs were kept in powder form and stored at −20° C. Serum metabolism experimental procedure and analysis. Rat blood serum samples were pre-equilibrated at 37° C. and then 10 μL (50 μg) of each drug solution was added to 90 μL of rat serum in 1.5 mL Eppendorf tube maintained at 37° C. At specified time intervals, metabolism was terminated by precipitating proteins with the addition of 1 ml of a solution of acetonitrile (ACN) and acetic acid (9:1, v/v). The terminated reaction mixture was stored in refrigerator (5° C.) overnight and centrifuged (14,000 rpm) for 30 min to remove precipitated proteins. The separated supernatant was dried in vacuum concentrator. The dried samples were reconstituted using 200 μL HPLC mobile phase (10% v/v ACN in water), vortexed briefly, and subjected to HPLC separation and analysis. A serum blank experiment to detect any interfering peaks in the HPLC chromatogram was performed by in an identical manner except that no drug was added. Zero time values for each drug candidate were established by first treating the serum with ACN, processing the sample as described above, adding drug, and then performing HPLC analysis.
The degradation rate of drug was determined by measuring the decrease in area under curve (AUC) at the retention time of drug over time. The AUC obtained from the zero time experiment was considered to represent the “100%” drug concentration and was used to determine the decreased drug concentration at each specified time interval. The semi-logarithmic plot of drug concentration vs. time was generated to determine degradation kinetic constant (k) of the tested drug. The half-life of drug was (t1/2) was calculated by 0.693/k.
Analysis of samples was performed using an HPLC system. The system consisted of a communications bus module, pumps, and a photodiode array detector. Separation was achieved using a C18 (250 mm×4.6 mm id., 5 μm particle size) reverse phase column. The column temperature was set at 40° C. The mobile phase consisted of a mixture of ACN and water with 0.1% TFA and was degassed by ultrasonication. Samples were introduced by manual mode with an injection volume of 250 μL. The drug was eluted with a flow rate of 1 mL/min and detected by PDA detector at […] wavelengths of 215 and 280 nm.

The test system of series [3] is hippocampal neurons. The series can be described thus: Growth factor deprivation of dissociated hippocampal neurons. As to conditions: starved 72 hrs +/− HGF 5 ng/ml and/or Dihexa. It is filed as cell-based. As for the experimental part:
FIG. 46. […] Dissociated hippocampal neurons were starved for 72 hrs+/−HGF at sub-threshold concentrations 5 ng/ml and or Dihexa at 2 different concentrations 10^−8M and […]. (**p<0.001,*** p<0.0001; Mean+/−SEM).

As for `CCCCCC(=O)N[C@@H](Cc1ccc(O)cc1)C(=O)N[C@H](C(=O)NCCCCCC(N)=O)[C@@H](C)CC` [Dihexa, N-hexanoic-Tyr-Ile-(6)-aminohexanoic amide] (Hexanoyl-Tyr-Ile-[Ahx]-NH2), the “augmentation of HGF activation (phosphorylation) of c-Met” value in series [1] is on record as “dramatically augment the ability of HGF to activate c-Met; also recorded: markedly augments the ability of HGF to signal to c-Met; also recorded: work synergistically to activate c-Met”. The half-life at 0.5 mg/mL amounted to 336 min in series [2] (37° C., Mean +/− SD, N = 3, read-out: Half-Life (min), serum stability) and 330 min in series [2] (read-out: t1/2 in rat serum). In addition, the “protection of neurons from growth factor deprivation” value in series [3] is on record as “act synergistically to protect neurons; also recorded: protects neurons from growth factor deprivation”.
